# Measured values published in US20070037739A1, “Compounds useful in coating stents to prevent and treat stenosis and restenosis” (Medlogics Device Corporation, priority 2003, published 2007).
# Peptide text beside a SMILES is read from it.
# How the values were obtained:
# U937 cells = assay: TNF-induced DNA fragmentation in U937 cells; format: cell-based
# Excerpt: TNF-α-induced apoptosis in U937 monocytic leukemia cells can be used to evaluate the mechanism of apoptosis and its pharmacological manipulation in various diseases, including inflammation. This can be measured by internucleosomal DNA cleavage (Wright, S. C.; Kumar, P.; Tam, A. W.; Shen, N.; Varma, M.; Larrick, J. W. Apoptosis and DNA fragmentation precede TNF-induced cytolysis in U937 cells. J. Cell. Biochem., 1992, 48, 344-355). It has been shown that signal transduction pathways leading to apoptosis depend on the generation of free radicals (Buttke, T. M.; Sandstrom, P. A. Oxidative stress as a mediator of apoptosis. Immunol. Today, 1994, 15, 7-10) and alterations in the intracellular redox status through depletion of […] glutathione (GSH) (Ghibelli, L.; Coppola, S.; Rotilio, G.; Lafavia, E.; Maresca, V.; Ciriolo, M. R. Nonoxidative loss of gluthione in apoptosis via GSH extrusion. Biochem. Biophys. Res. Comm. 1995, 216, 313-320; van den Dobbelsteen, D. J.; Stefen, C.; Nobel, I.; Schlegel, J.; Cotgreave, I. A; Orrenius, S.; Slater, A. R. G. Rapid and specific efflux of reduced glutathione during apoptosis induced by anti-Fas/APO-1 antibody. J. Cell. Biochem., 1996, 271, 15420-15427).
# [1] = Balloon-induced intimal injury (restenosis); format: in vivo; settings: DAA-1 treated animals
# Excerpt: Following balloon-induced […] intimal injury, rats were give daily intravenous saline or DAA-I at 15, 30 or 45 pmol/kg×14d.
# PBMNC = settings: LPS- and PG-stimulated PBMNC, healthy human donors; cited from earlier work
# NADPH oxidase = target: T1, NADPH oxidase (Homo sapiens, UniProt P04839); settings: read-out: IC50 to inhibit NADPH oxidase activity; cited from earlier work
# T1 sequence (P04839 2-570 limits assumed): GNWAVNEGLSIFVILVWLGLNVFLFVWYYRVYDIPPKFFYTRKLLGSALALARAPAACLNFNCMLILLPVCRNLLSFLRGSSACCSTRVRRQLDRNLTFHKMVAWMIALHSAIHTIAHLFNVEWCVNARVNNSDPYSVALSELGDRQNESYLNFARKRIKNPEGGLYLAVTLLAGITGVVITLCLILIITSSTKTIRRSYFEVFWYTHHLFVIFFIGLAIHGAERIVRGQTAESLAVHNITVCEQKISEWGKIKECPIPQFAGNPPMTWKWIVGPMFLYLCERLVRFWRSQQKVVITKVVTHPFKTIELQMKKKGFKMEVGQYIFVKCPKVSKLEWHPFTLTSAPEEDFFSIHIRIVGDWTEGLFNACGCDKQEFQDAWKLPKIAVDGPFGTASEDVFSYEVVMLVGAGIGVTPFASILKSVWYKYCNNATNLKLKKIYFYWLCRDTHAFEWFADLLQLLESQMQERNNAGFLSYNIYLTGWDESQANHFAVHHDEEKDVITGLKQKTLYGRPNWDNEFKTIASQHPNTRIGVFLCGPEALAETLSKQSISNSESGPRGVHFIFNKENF
# pulmonary macrophages = settings: cited from earlier work
# [2] = test system: peripheral blood mononuclear cells (PBMNC); settings: 100 μg/ml; mycobacterial 60 kDa heat shock protein 5 μg/ml; six RA patients; cited from earlier work
# [3] = cited from earlier work
# [4] = cited from earlier work; remark: listed apart in the source
# J-774A.1 cells = settings: cited from earlier work
# [5] = 12 mg/d through inhalation for four days; cited from earlier work
# human cartilage = settings: in vitro; cited from earlier work
# peritoneal macrophages = settings: cited from earlier work
# [6] = injected, 400 mg/kg; cited from earlier work
# neutrophils [7] = settings: PMA- and zymosan-stimulated neutrophils, healthy human volunteers; cited from earlier work
# neutrophils [8] = settings: PMA-stimulated rat neutrophils; cited from earlier work
compound,measurement,setting,value
"COc1cc(C(C)=O)ccc1OC(C)=O [Compound 1, 4-Acetoxy-3-methoxyacetophenone]","IC50 (μg/ml), protective effect against TNF-induced DNA fragmentation",U937 cells,43 µg/mL
same,potency compared with apocynin (from IC50 values),U937 cells,more potent than apocynin
"CC[C@H](C)[C@H](NC(=O)[C@H](Cc1ccc(O)cc1)NC(=O)[C@@H](NC(=O)[C@@H](N)CCCNC(=N)N)C(C)C)C(=O)N[C@@H](Cc1c[nH]cn1)C(=O)N1CCC[C@H]1C(=O)N[C@@H](Cc1ccccc1)C(=O)N[C@@H](Cc1c[nH]cn1)C(=O)N[C@@H](CC(C)C)C(=O)O [DAA-I, Arg-Val-Tyr-IIe-His-pro-Phe-His-Leu] (H-RVYIHPFHL-OH)",toxicity,[1],no appreciable toxicity was detected
COc1cc(C(C)=O)ccc1O [apocynin],TNF-α release,PBMNC,dose-dependently inhibited
same,IC50,NADPH oxidase,9.6 µM
same,production of prostaglandin E2,pulmonary macrophages,increases the production of prostaglandin E2
same,inhibition of production of IL-1,[2],greater than 50%
same,inhibition of production of TNF-α,[2],greater than 50%
same,decrease of glutathione levels induced by ozone exposure,"[3]; 5 mg/kg orally, pretreatment",almost completed inhibited
same,mean redox value (glutathione),"[3]; apocynin pretreatment, air 15.4%, ozone 32.0%",18.3%
same,joint inflammation at lowest dose,[4]; 24 μg/kg,protected the animals against joint inflammation
same,joint swelling at highest dose,[4]; 200 μg/ml,again inhibited joint swelling
same,joint inflammation,"[4]; CIA rats, overall",significantly inhibited
same,IL-6 production,[4]; CIA rats,reduced IL-6 production
same,swelling after termination of treatment,[4]; CIA rats,did not result in a flare-up of the swelling
same,release of superoxide to the medium,"J-774A.1 cells; 100 μg/ml, cells+LDL+Cu2+ or cells+PMA",completely blocked
same,"macrophage-released superoxides, apocynin alone",J-774A.1 cells; non-activated cells,0.2 nmol superoxide/10^6 cells
same,side effects,[5],no side effects
same,IC50,"U937 cells; Homo sapiens, U-937, read-out: IC50 (μg/ml), protective effect against TNF-induced DNA fragmentation",64 µg/mL
same,cartilage destruction and adverse effects on cartilage,human cartilage,can counteract human RA-inflammation-mediated cartilage destruction without having adverse effects on human cartilage
same,oxidative burst,"peritoneal macrophages; apocynin 10 mM 25 min before myelin and zymosan, controls 75%",about 5%
same,phagocytosis of myelin,peritoneal macrophages; rat peritoneal macrophages,dose-dependently inhibited
same,obvious effects on the mice,[6],no obvious effects
same,concentration inhibiting ROS production by 50%,neutrophils [7],4 µg/mL
same,production of ROS,neutrophils [8],"competitively inhibited, in a dose-dependent manner"
"COc1cc(C(C)=O)cc(N)c1O.Cl [Compound 3, 5-Amino-4-hydroxy-3-methoxyacetophenone hydrochloride]","IC50 (μg/ml), protective effect against TNF-induced DNA fragmentation",U937 cells,80 µg/mL
"COc1cc(C(C)=O)cc([N+](=O)[O-])c1O [Compound 2, 4-Hydroxy-3-methoxy-5-nitroacetophenone]","IC50 (μg/ml), protective effect against TNF-induced DNA fragmentation",U937 cells,90 µg/mL
"COc1cc(C(C)=O)cc(NC(C)=O)c1O [Compound 4, 5-Acetoamido-4-hydroxy-3-methoxyacetophenone]","IC50 (μg/ml), protective effect against TNF-induced DNA fragmentation",U937 cells,37 µg/mL
same,potency compared with apocynin (from IC50 values),U937 cells,more potent than apocynin
